Read-outs that look alike come from different tables or passages of the source. One block for each substance: values may come before it. No end group written: not given here.
Legend:
[1] = test system: A. baumannii laboratory strains (ATCC strains 17,978 and 19,606); type: cell-based, Acinetobacter baumannii; conditions: disc diffusion; activity = inhibition zone diameter ≥ 10 mm
Method: The antimicrobial activities of 58 AMPs were screened against A. baumannii laboratory strains (ATCC strains 17,978 and 19,606) in vitro using a disc diffusion assay (Supplementary Table 1).
The antimicrobial activity against Acinetobacter baumannii were determined by a inhibition zone
assay, performed as previous described1. The AMPs with an inhibition zone diameter ≥ 10 mm were
determined as the AMPs with antimicrobial activity.

[2] = test system: Acinetobacter baumannii 17,978; type: cell-based;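 also: CLSI broth microdilution in 96-well polypropylene plates, MBC taken as lowest concentration giving no growth when clear wells were subcultured on LB agar for 24 h at 37 °C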
Method: (§1) MBC were determined by extending the MIC procedure in sterilized 96-well polypropylene microtiter plates according to the broth microdilution guidelines of the Clinical and Laboratory Standards Institute with some modification[47]. […] In addition, 10 µL was drawn from each well with no visible turbidity onto LB agar plates and incubated for 24 h at 37 °C. The lowest concentration showing no visible growth on agar subculture was used as the MBC value. All experiments were performed in triplicate.

[3] = test system: Acinetobacter baumannii 19,606; type: cell-based
Method: as §1

MDRAB clinical strains = type: cell-based, Acinetobacter baumannii
Method: as §1

[4] = test system: MDRAB clinical strain J49; type: cell-based, Acinetobacter baumannii
Method: as §1

MDRAB clinical strain K2 = type: cell-based, Acinetobacter baumannii
Method: as §1

[5] = test system: MDRAB clinical strain Y92; type: cell-based, Acinetobacter baumannii
Method: as §1

[6] = test system: MDRAB clinical strain W11; type: cell-based, Acinetobacter baumannii
Method: as §1

[7] = test system: MDRAB clinical strain U80; type: cell-based, Acinetobacter baumannii
Method: as §1

[8] = test system: MDRAB clinical strain U95; type: cell-based, Acinetobacter baumannii
[9] = test system: MDRAB clinical strain O59; type: cell-based, Acinetobacter baumannii
[10] = test system: MDRAB clinical strain D29; type: cell-based, Acinetobacter baumannii
[11] = test system: MDRAB clinical strain L87; type: cell-based, Acinetobacter baumannii
Method: as §1

[12] = test system: MDRAB clinical strain AO80; type: cell-based, Acinetobacter baumannii
Method: as §1

[13] = test system: MDRAB clinical strain AS40; type: cell-based, Acinetobacter baumannii
[14] = test system: MDRAB clinical strain AK29; type: cell-based, Acinetobacter baumannii
Method: as §1

[15] = test system: MDRAB clinical strain AK61; type: cell-based, Acinetobacter baumannii
[16] = test system: MDRAB clinical strain AE5; type: cell-based, Acinetobacter baumannii
Method: as §1

[17] = test system: MDRAB clinical strain AE6; type: cell-based, Acinetobacter baumannii
[18] = test system: MDRAB clinical strain AF11; type: cell-based, Acinetobacter baumannii
[19] = test system: MDRAB clinical strain AF12; type: cell-based, Acinetobacter baumannii
[20] = test system: MDRAB clinical strain AF93; type: cell-based, Acinetobacter baumannii
Method: as §1

[21] = test system: MDRAB clinical strain AG51; type: cell-based, Acinetobacter baumannii
[22] = test system: MDRAB clinical strain AN10; type: cell-based, Acinetobacter baumannii
Method: as §1

[23] = test system: MDRAB clinical strain AL87; type: cell-based, Acinetobacter baumannii
Method: as §1

[24] = test system: MDRAB clinical strain AZ93; type: cell-based, Acinetobacter baumannii
Method: as §1

[25] = 10 µL from wells without turbidity onto LB agar, 24 h at 37 °C, triplicate

Substance: AKKVFKRLG IGKFLHSAKKF-NH2 [HPMA, antimicrobial peptide]
antimicrobial activity against Acinetobacter baumannii (inhibition zone assay) [1]: without antimicrobial activity (The antimicrobial peptides without antimicrobial activity)

Substance: AKKVFKRLGIGAVLKVLTTG [HPME, antimicrobial peptide]
antimicrobial activity against Acinetobacter baumannii (inhibition zone assay) [1]: without antimicrobial activity (The antimicrobial peptides without antimicrobial activity)

Substance: GLLRKGGEKIGEKLKKIGQKIKNFFQKLVPQPEQ [CRAMP, antimicrobial peptide]
antimicrobial activity against Acinetobacter baumannii (inhibition zone assay) [1]: without antimicrobial activity (The antimicrobial peptides without antimicrobial activity)

MIC ([2]; 17,978, 24 h): 16 µg/mL
MIC ([3]; 19,606, 24 h): 16 µg/mL
MIC (MDRAB clinical strains; 24 h): 8 to 32 µg/mL
MIC ([4]; 24 h): 16 µg/mL
MIC (MDRAB clinical strain K2; 24 h): 16 µg/mL
MIC ([5]; 24 h): 16 µg/mL
MIC ([6]; 24 h): 16 µg/mL
MIC ([7]; 24 h): 32 µg/mL
MIC ([8]; 24 h): 32 µg/mL
MIC ([9]; 24 h): 32 µg/mL
MIC ([10]; 24 h): 16 µg/mL
MIC ([11]; 24 h): 32 µg/mL
MIC ([12]; 24 h): 32 µg/mL
MIC ([13]; 24 h): 32 µg/mL
MIC ([14]; 24 h): 8 µg/mL
MIC ([15]; 24 h): 32 µg/mL
MIC ([16]; 24 h): 16 µg/mL
MIC ([17]; 24 h): 16 µg/mL
MIC ([18]; 24 h): 16 µg/mL
MIC ([19]; 24 h): 8 µg/mL
MIC ([20]; 24 h): 16 µg/mL
MIC ([21]; 24 h): 8 µg/mL
MIC ([22]; 24 h): 8 µg/mL
MIC ([23]; 24 h): 8 µg/mL
MIC ([24]; 24 h): 32 µg/mL
Substance: GWKKWFNRAKKVGKTVGGLAVDHYL-NH2 [NRC12]
MBC ([2]; 17,978, 24 h): 16 µg/mL
MBC ([3]; 19,606, 24 h): 16 µg/mL
MBC (MDRAB clinical strains; 24 h): 8 to 32 µg/mL
MBC ([4]; 24 h): 16 µg/mL
MBC (MDRAB clinical strain K2; 24 h): 32 µg/mL
MBC ([5]; 24 h): 16 µg/mL
MBC ([6]; 24 h): 16 µg/mL
MBC ([7]; 24 h): 32 µg/mL
MBC ([8]; 24 h): 32 µg/mL
MBC ([9]; 24 h): 32 µg/mL
MBC ([10]; 24 h): 16 µg/mL
MBC ([11]; 24 h): 32 µg/mL
MBC ([12]; 24 h): 32 µg/mL
MBC ([13]; 24 h): 32 µg/mL
MBC ([14]; 24 h): 8 µg/mL
MBC ([15]; 24 h): 32 µg/mL
MBC ([16]; 24 h): 16 µg/mL
MBC ([17]; 24 h): 16 µg/mL
MBC ([18]; 24 h): 16 µg/mL
MBC ([19]; 24 h): 16 µg/mL
MBC ([20]; 24 h): 16 µg/mL
MBC ([21]; 24 h): 8 µg/mL
MBC ([22]; 24 h): 8 µg/mL
MBC ([23]; 24 h): 8 µg/mL
MBC ([24]; 24 h): 32 µg/mL

MIC ([2]; 17,978, 24 h): 32 µg/mL
MIC ([3]; 19,606, 24 h): 16 µg/mL
MIC (MDRAB clinical strains; 24 h): 8 to 16 µg/mL
MIC ([4]; 24 h): 8 µg/mL
MIC (MDRAB clinical strain K2; 24 h): 16 µg/mL
MIC ([5]; 24 h): 8 µg/mL
MIC ([6]; 24 h): 16 µg/mL
MIC ([7]; 24 h): 16 µg/mL
MIC ([8]; 24 h): 16 µg/mL
MIC ([9]; 24 h): 16 µg/mL
MIC ([10]; 24 h): 16 µg/mL
MIC ([11]; 24 h): 16 µg/mL
MIC ([12]; 24 h): 8 µg/mL
MIC ([13]; 24 h): 8 µg/mL
MIC ([14]; 24 h): 8 µg/mL
MIC ([15]; 24 h): 8 µg/mL
MIC ([16]; 24 h): 16 µg/mL
MIC ([17]; 24 h): 8 µg/mL
MIC ([18]; 24 h): 8 µg/mL
MIC ([19]; 24 h): 8 µg/mL
MIC ([20]; 24 h): 8 µg/mL
MIC ([21]; 24 h): 8 µg/mL
MIC ([22]; 24 h): 8 µg/mL
MIC ([23]; 24 h): 8 µg/mL
MIC ([24]; 24 h): 8 µg/mL
Substance: GYNYAKKLANLAKKFANALW-NH2 [GW-H1a]
MBC ([2]; 17,978, 24 h): 32 µg/mL
MBC ([3]; 19,606, 24 h): 16 µg/mL
MBC (MDRAB clinical strains; 24 h): 8 to 32 µg/mL
MBC ([4]; 24 h): 8 µg/mL
MBC (MDRAB clinical strain K2; 24 h): 16 µg/mL
MBC ([5]; 24 h): 8 µg/mL
MBC ([6]; 24 h): 16 µg/mL
MBC ([7]; 24 h): 32 µg/mL
MBC ([8]; 24 h): 32 µg/mL
MBC ([9]; 24 h): 32 µg/mL
MBC ([10]; 24 h): 32 µg/mL
MBC ([11]; 24 h): 32 µg/mL
MBC ([12]; 24 h): 8 µg/mL
MBC ([13]; 24 h): 8 µg/mL
MBC ([14]; 24 h): 8 µg/mL
MBC ([15]; 24 h): 8 µg/mL
MBC ([16]; 24 h): 16 µg/mL
MBC ([17]; 24 h): 16 µg/mL
MBC ([18]; 24 h): 16 µg/mL
MBC ([19]; 24 h): 16 µg/mL
MBC ([20]; 24 h): 8 µg/mL
MBC ([21]; 24 h): 8 µg/mL
MBC ([22]; 24 h): 8 µg/mL
MBC ([23]; 24 h): 8 µg/mL
MBC ([24]; 24 h): 8 µg/mL

Substance: ILGPVLSMVGSALGGLIKKI-NH2 [Maximin H2]
MBC [2, 25]: 128 µg/mL
MIC ([2]; broth microdilution (CLSI, modified), LB medium, 5 × 10^5 CFU/mL, 24 h at 37 °C, lowest concentration with no visible growth, triplicate): 64 µg/mL
MBC [3, 25]: 32 µg/mL
MIC ([3]; broth microdilution (CLSI, modified), LB medium, 5 × 10^5 CFU/mL, 24 h at 37 °C, triplicate): 32 µg/mL
MIC (MDRAB clinical strains; range over MDRAB clinical strains (details in Supplementary Table 2), broth microdilution, LB, 24 h 37 °C): 16 to 128 µg/mL
MBC (MDRAB clinical strains; range over MDRAB clinical strains (details in Supplementary Table 2), subculture on LB agar, 24 h 37 °C): 16 to 128 µg/mL
MIC ([4]; strain J49, broth microdilution, LB, 24 h 37 °C): 16 µg/mL
MBC ([4]; strain J49, subculture on LB agar, 24 h 37 °C): 16 µg/mL
MIC (MDRAB clinical strain K2; strain K2, broth microdilution, LB, 24 h 37 °C): 16 µg/mL
MBC (MDRAB clinical strain K2; strain K2, subculture on LB agar, 24 h 37 °C): 32 µg/mL
MIC ([5]; strain Y92, broth microdilution, LB, 24 h 37 °C): 64 µg/mL
MBC ([5]; strain Y92, subculture on LB agar, 24 h 37 °C): 128 µg/mL
MIC ([6]; strain W11, broth microdilution, LB, 24 h 37 °C): 64 µg/mL
MBC ([6]; strain W11, subculture on LB agar, 24 h 37 °C): 128 µg/mL
MIC ([7]; strain U80, broth microdilution, LB, 24 h 37 °C): 128 µg/mL
MBC ([7]; strain U80, subculture on LB agar, 24 h 37 °C): 128 µg/mL
MIC ([8]; strain U95, broth microdilution, LB, 24 h 37 °C): 128 µg/mL
MBC ([8]; strain U95, subculture on LB agar, 24 h 37 °C): 128 µg/mL
MIC ([9]; strain O59, broth microdilution, LB, 24 h 37 °C): 128 µg/mL
MBC ([9]; strain O59, subculture on LB agar, 24 h 37 °C): 128 µg/mL
MIC ([10]; strain D29, broth microdilution, LB, 24 h 37 °C): 128 µg/mL
MBC ([10]; strain D29, subculture on LB agar, 24 h 37 °C): 128 µg/mL
MIC ([11]; strain L87, broth microdilution, LB, 24 h 37 °C): 128 µg/mL
MBC ([11]; strain L87, subculture on LB agar, 24 h 37 °C): 128 µg/mL
MIC ([12]; strain AO80, broth microdilution, LB, 24 h 37 °C): 64 µg/mL
MBC ([12]; strain AO80, subculture on LB agar, 24 h 37 °C): 128 µg/mL
MIC ([13]; strain AS40, broth microdilution, LB, 24 h 37 °C): 64 µg/mL
MBC ([13]; strain AS40, subculture on LB agar, 24 h 37 °C): 64 µg/mL
MIC ([14]; strain AK29, broth microdilution, LB, 24 h 37 °C): 32 µg/mL
MBC ([14]; strain AK29, subculture on LB agar, 24 h 37 °C): 32 µg/mL
MIC ([15]; strain AK61, broth microdilution, LB, 24 h 37 °C): 64 µg/mL
MBC ([15]; strain AK61, subculture on LB agar, 24 h 37 °C): 64 µg/mL
MIC ([16]; strain AE5, broth microdilution, LB, 24 h 37 °C): 64 µg/mL
MBC ([16]; strain AE5, subculture on LB agar, 24 h 37 °C): 128 µg/mL
MIC ([17]; strain AE6, broth microdilution, LB, 24 h 37 °C): 128 µg/mL
MBC ([17]; strain AE6, subculture on LB agar, 24 h 37 °C): 128 µg/mL
MIC ([18]; strain AF11, broth microdilution, LB, 24 h 37 °C): 128 µg/mL
MBC ([18]; strain AF11, subculture on LB agar, 24 h 37 °C): 128 µg/mL
MIC ([19]; strain AF12, broth microdilution, LB, 24 h 37 °C): 64 µg/mL
MBC ([19]; strain AF12, subculture on LB agar, 24 h 37 °C): 64 µg/mL
MIC ([20]; strain AF93, broth microdilution, LB, 24 h 37 °C): 64 µg/mL
MBC ([20]; strain AF93, subculture on LB agar, 24 h 37 °C): 64 µg/mL
MIC ([21]; strain AG51, broth microdilution, LB, 24 h 37 °C): 32 µg/mL
MBC ([21]; strain AG51, subculture on LB agar, 24 h 37 °C): 64 µg/mL
MIC ([22]; strain AN10, broth microdilution, LB, 24 h 37 °C): 64 µg/mL
MBC ([22]; strain AN10, subculture on LB agar, 24 h 37 °C): 64 µg/mL
MIC ([23]; strain AL87, broth microdilution, LB, 24 h 37 °C): 64 µg/mL
MBC ([23]; strain AL87, subculture on LB agar, 24 h 37 °C): 64 µg/mL
MIC ([24]; strain AZ93, broth microdilution, LB, 24 h 37 °C): 64 µg/mL
MBC ([24]; strain AZ93, subculture on LB agar, 24 h 37 °C): 64 µg/mL

Substance: KQFRIRVRV [Peptide 1029, antimicrobial peptide]
antimicrobial activity against Acinetobacter baumannii (inhibition zone assay) [1]: without antimicrobial activity (The antimicrobial peptides without antimicrobial activity)

Substance: KRFRIRVRV [Peptide 1037, antimicrobial peptide]
antimicrobial activity against Acinetobacter baumannii (inhibition zone assay) [1]: without antimicrobial activity (The antimicrobial peptides without antimicrobial activity)

Reference: publication PMC8016998, “Identification of potential therapeutic antimicrobial peptides against Acinetobacter baumannii in a mouse model of pneumonia” (Scientific Reports, 2021)
